# Read-outs that look alike come from different tables or passages of the source.
# Key:
# [1] = target: T1, thymidine phosphorylase (TP) (Escherichia coli, UniProt P07650); assay: Thymidine phosphorylase inhibition assay (spectrophotometric, 290 nm); format: biochemical, E. coli; conditions: for inhibition: read-out: Percent Inhibition of thymidine phosphorylase, 10 μL of test compound (0.5 mM in dimethylsulfoxide) per well; for inhibition / inhibition at 500 µM (stock): <50% regarded inactive; for inhibition at 500 µM (stock): 10 μL of test compound (0.5 mM in dimethylsulfoxide) per well, read-out: Percent Inhibition of thymidine phosphorylase; for IC50: recombinant TP expressed in E. coli, substrate thymidine, pH 7.0, 30°C, N.A. = not active, read-out: IC50 (μM ± SEM), thymidine phosphorylase inhibition
# T1 construct: purchased Sigma Aldrich, USA; host or cells: E. coli
# T1 sequence (P07650 whole entry): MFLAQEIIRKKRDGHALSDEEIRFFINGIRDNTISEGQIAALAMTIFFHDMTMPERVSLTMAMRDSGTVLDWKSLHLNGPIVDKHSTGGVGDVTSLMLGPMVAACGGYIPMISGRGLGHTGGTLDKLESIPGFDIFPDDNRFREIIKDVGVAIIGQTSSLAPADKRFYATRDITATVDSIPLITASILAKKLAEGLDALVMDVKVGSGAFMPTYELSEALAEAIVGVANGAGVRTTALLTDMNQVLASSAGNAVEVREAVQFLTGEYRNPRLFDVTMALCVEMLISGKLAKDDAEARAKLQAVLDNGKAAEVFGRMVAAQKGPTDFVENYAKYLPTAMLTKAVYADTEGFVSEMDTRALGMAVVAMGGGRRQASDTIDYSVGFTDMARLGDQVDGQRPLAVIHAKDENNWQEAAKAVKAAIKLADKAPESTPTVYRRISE
# Description: Since human TP is not commercially available, we used commercially available recombinant TP (expressed in E. coli) enzyme. Primary sequence of TP is mostly conserved throughout the evolution and mammalian TP share 39% sequence similarity with TP of E. coli. The mammalian enzyme also shares 65–70% similarity with the active site residues of E. coli TP enzyme.
# Assay for TP inhibition was performed spectrophotometrically, following the method of Bera et al. with some modifications. Enzyme TP catalyzed the reversible phosphorolysis of thymidine to thymine and 2-deoxyribose-1-phosphate. Reaction mixture contained 150 μL of potassium phosphate buffer (pH 7.0, 50 mM), 20 μL of enzyme (0.058 U/well), and 10 μL of test compound (0.5 mM in dimethylsulfoxide). The reaction mixture was incubated for 10 min at 30°C. 20 μL of substrate (1.5 mM) was then added and change in absorbance was recorded after every minute for a total time period of 10 minutes at 290 nm in ELISA plate reader (Spectra Max-340, Molecular Devices, CA, USA).
# We have used the 96-well UV-plates, purchased from Corning (Catalogue No. COSTAR 3635, Lot No. 00912050). […] We then added the substrate (thymidine), and recorded the final readings.
# [2] = target: T1, thymidine phosphorylase (TP); assay: Kinetic studies on thymidine phosphorylase (Lineweaver-Burk, secondary re-plot, Dixon plot); format: biochemical, E. coli; conditions: thymidine as variable substrate; for Inhibition Type: from Lineweaver-Burk plot
# Description: Kinetic studies were carried out to identify the mechanism of inhibition by these compounds. Inhibitor could bind with the enzyme in multiple ways, such as in competitive, non-competitive, mixed or uncompetitive way. In kinetic assay, the enzyme (0.058 U/200 μL) was incubated with different concentrations of inhibitor for 10 min at 30°C. The reaction was then initiated by adding different concentrations (0.1875–1.5 mM) of substrate (thymidine), and the resulting degradation of thymidine was measured continuously at 290 nm for 10 min on ELISA plate reader. Every experiment was run in triplicate.
# Lineweaver-Burk plot was plotted to determine the type of inhibition. This was accomplished by plotting the reciprocal of the rate of reaction against the reciprocal of the substrate concentration. Ki values were determined by secondary re-plot of Lineweaver-Burk plot, and reconfirmed by Dixon plot.
# [3] = system: mouse fibroblast (3T3) cells; assay: MTT anti-proliferative (cytotoxicity) assay, 3T3 cells; format: cell-based; conditions: mouse fibroblast normal cell line, read-out: IC50 ± Standard Deviation, 3T3 Cell Line
# Description: (§1) Anti-proliferative activity of active compounds was evaluated by using the standard MTT (3-[4,5-dimethylthiazole-2-yl]-2,5-diphenyl-tetrazolium bromide) colorimetric assay in 96-well plate.
# (§2) It is a colorimetric assay that measures the reduction of MTT by mitochondrial enzyme i.e. succinate dehydrogenase. The MTT enters into the mitochondria of cell, where it is reduced to an insoluble formazan salt. As reduction of MTT can only occur in metabolically active cells, the level of activity is actually a measure of the viability of the cells.
# (§3) Mouse fibroblast normal cell line 3T3, and prostate cancer line (PC3) were cultured separately in DMEM, supplemented with 5% of FBS, 100 IU/mL of penicillin and 100 μg/mL of streptomycin, and kept at 37°C in 5% CO2 incubator. For the preparation of cell culture, 100 μL/well of cell solution (5 x 10^4 cells/mL) was added into 96-well plate. The plate was incubated for overnight, and fresh medium was added after the removal of old medium. The test compounds were also added in different concentrations into the plate, and again incubated for 48 h. After the completion of this incubation period, 200 μL MTT (0.5 mg/mL) was added, and plate was again incubated for 4 h, after this final incubation, 100 μL of DMSO was added to each well. The level of MTT reduction to formazan was evaluated by change in absorbance at 540 nm for 3T3, and 570 nm for PC3 using a micro-plate reader (Spectra Max plus, Molecular Devices, CA, USA).
# [4] = system: prostate cancer (PC3) cells; assay: MTT anti-proliferative assay, PC3 cells; format: cell-based; conditions: Homo sapiens, PC-3, 48 h incubation, prostate cancer cell line, read-out: IC50 ± Standard Deviation, PC3 Cell Line
# Description: as §1, §2, §3
Structure (SMILES),inhibition [1],"IC50 ([3]; NIH3T3, 48 h incubation)",IC50 [4],also measured
"O=c1[nH]c(=O)c2cc[nH]c2[nH]1 [7-Deazaxanthine, reference compound]",99%,–,–,Inhibition Type [2]: Non-competitive
"O=C(N/N=C/c1ccccc1O)c1ccc(O)cc1 [Compound 1, 4-Hydroxyl-N'-[(E)-(2^′-hydroxylphenyl)methylidene]benzohydrazide]",99.6%,13.1 ± 0.3 µM,7.5 ± 0.4 µM,–
"O=C(N/N=C/c1cccc(O)c1O)c1ccc(O)cc1 [Compound 2, N'-[(E)-(2^′,3^′-Dihydroxylphenyl)methylidene]-4-hydroxylbenzohydrazide]",99.9%,23 ± 1 µM,7.6 ± 0.4 µM,–
"O=C(N/N=C/c1ccc(O)c(O)c1)c1ccc(O)cc1 [Compound 3, N'-[(E)-(3^′,4^′-Dihydroxylphenyl)methylidene]-4-hydroxylbenzohydrazide]",99.3%,23.5 ± 1.1 µM,> 30 µM,Inhibition Type [2]: Uncompetitive
"O=C(N/N=C/c1c(O)cc(O)cc1O)c1ccc(O)cc1 [Compound 4, 4-Hydroxyl-N'-[(E)-(2^′,4^′,6^′-trihydroxylphenyl)methylidene]benzohydrazide]",–,–,–,inhibition at 500 µM (stock) [1]: 8%
"O=C(N/N=C/c1ccc(O)c(O)c1O)c1ccc(O)cc1 [Compound 5, 4-Hydroxyl-N'-[(E)-(2^′,3^′,4^′-trihydroxylphenyl)methylidene]benzohydrazide]",–,–,–,inhibition at 500 µM (stock) [1]: 26%
"O=C(N/N=C/c1cccc(O)c1)c1ccc(O)cc1 [Compound 6, 4-Hydroxyl-N'-[(E)-(3^′-hydroxylphenyl)methylidene]benzohydrazide]",99%,> 30 µM,> 30 µM,–
"O=C(N/N=C/c1cc(O)c(O)cc1O)c1ccc(O)cc1 [Compound 7, 4-Hydroxyl-N'-[(E)-(2^′,4^′,5^′-trihydroxylphenyl)methylidene]benzohydrazide]",99%,3.8 ± 0.4 µM,> 30 µM,–
"O=C(N/N=C/c1ccc(O)cc1)c1ccc(O)cc1 [Compound 8, 4-Hydroxyl-N'-[(E)-(4^′-hydroxylphenyl)methylidene]benzohydrazide]",99%,> 30 µM,> 30 µM,–
"O=C(NN=Cc1ccc(Cl)cc1)c1ccc(O)cc1 [Compound 9, N'-[(E)-(4^′-Chlorophenyl)methylidene]-4-hydroxylbenzohydrazide]",99%,> 30 µM,> 30 µM,"IC50 [1]: 159 ± 0.4 µM; Inhibition Type [2]: Uncompetitive; Ki ([2]; secondary re-plot of Lineweaver-Burk plot, reconfirmed by Dixon plot, read-out: Ki (μM ± SEM)): 138 ± 0.009 µM"
"COc1ccc(/C=N/NC(=O)c2ccc(O)cc2)cc1 [Compound 10, 4-Hydroxyl-N'-{(E)-[4^′-(methoxy)phenyl]methylidene}benzohydrazide]",99.8%,> 30 µM,> 30 µM,–
"O=C(N/N=C/c1cccc(Cl)c1)c1ccc(O)cc1 [Compound 11, N'-[(E)-(3^′-Chlorophenyl)methylidene]-4-hydroxylbenzohydrazide]",99%,> 30 µM,> 30 µM,–
"COc1ccccc1/C=N/NC(=O)c1ccc(O)cc1 [Compound 12, 4-Hydroxyl-N'-{(E)-[2^′-(methoxy)phenyl]methylidene}benzohydrazide]",99%,> 30 µM,> 30 µM,–
"COc1ccc(/C=N/NC(=O)c2ccc(O)cc2)cc1OC [Compound 13, N'-{(E)-[3^′,4^′-Bis(methoxy)phenyl]methylidene}-4-hydroxylbenzohydrazide]",99%,> 30 µM,> 30 µM,–
"O=C(N/N=C/c1ccc(Br)cc1)c1ccc(O)cc1 [Compound 14, N'-[(E)-(4^′-Bromophenyl)methylidene]-4-hydroxylbenzohydrazide]",96.6%,> 30 µM,> 30 µM,Inhibition Type [2]: Uncompetitive
"O=C(N/N=C/c1ccc(Cl)cc1Cl)c1ccc(O)cc1 [Compound 15, N'-[(E)-(2^′,4^′-Dichlorophenyl)methylidene]-4-hydroxylbenzohydrazide]",–,–,–,inhibition at 500 µM (stock) [1]: 20%
"Cc1ccccc1/C=N/NC(=O)c1ccc(O)cc1 [Compound 16, 4-Hydroxyl-N'-[(E)-(2^′-methylphenyl)methylidene]benzohydrazide]",99%,> 30 µM,> 30 µM,–
"COc1cccc(/C=N/NC(=O)c2ccc(O)cc2)c1O [Compound 19, 4-Hydroxyl-N'-[(E)-(2^′-hydroxyl-3^′-methoxyphenyl)methylidene]benzohydrazide]",86.9%,23.6 ± 0.2 µM,9.6 ± 0.3 µM,IC50 [1]: 181.5 ± 1.6 µM
"O=C(N/N=C/c1cc(Br)ccc1O)c1ccc(O)cc1 [Compound 20, N'-[(E)-(5^′-Bromo-2^′-hydroxylphenyl)methylidene]-4-hydroxylbenzohydrazide]",–,–,–,inhibition at 500 µM (stock) [1]: 38.6%
"O=C(N/N=C/c1cc(Cl)ccc1O)c1ccc(O)cc1 [Compound 21, N'-[(E)-(5^′-Chloro-2^′-hydroxylphenyl)methylidene]-4-hydroxylbenzohydrazide]",12.4%,–,–,–
"COc1ccc(O)c(/C=N/NC(=O)c2ccc(O)cc2)c1 [Compound 23, 4-Hydroxyl-N'-{(E)-[2^′-hydroxyl-5^′-(methoxy)phenyl]methylidene}benzo-hydrazide]",99.9%,15.3 ± 0.9 µM,10.5 ± 0.5 µM,–
"CCOc1cccc(/C=N/NC(=O)c2ccc(O)cc2)c1O [Compound 24, N'-{(E)-[3^′-Ethoxy-2^′-hydroxylphenyl]methylidene}-4-hydroxylbenzohydrazide]",82.4%,9.4 ± 0.3 µM,6.5 ± 0.2 µM,–
"C/C(=N\NC(=O)c1ccc(O)cc1)c1ccccc1O [Compound 25, 4-Hydroxyl-N'-[(E)-1-(2^′-hydroxylphenyl)ethylidene]benzohydrazide]",25%,–,–,–
"C/C(=N\NC(=O)c1ccc(O)cc1)c1ccc(O)cc1O [Compound 26, N'-[(E)-1-(2^′,4^′-Dihydroxylphenyl)ethylidene]-4-hydroxylbenzohydrazide]",30%,–,–,–
"C/C(=N\NC(=O)c1ccc(O)cc1)c1cc(O)ccc1O [Compound 28, N'-[(E)-1-(2^′,5^′-Dihydroxylphenyl)ethylidene]-4-hydroxylbenzohydrazide]",99.3%,20.2 ± 0.9 µM,> 30 µM,–
"C[C@@H]1C[C@@H]([C@H](O)CC2CC(=O)NC(=O)C2)C(=O)[C@@H](C)C1 [Cyclohexamide, cyclohexamide, reference compound]",–,–,–,IC50 ([3]; 48 h incubation): 0.26 ± 0.1 µM
"COc1cccc2c1C(=O)c1c(O)c3c(c(O)c1C2=O)C[C@@](O)(C(=O)CO)C[C@@H]3O[C@H]1C[C@H](N)[C@H](O)[C@H](C)O1 [Doxorubicin, doxorubicin, reference compound]",–,–,0.91 ± 0.1 µM,–
"N=C1CCCN1Cc1nc(O)nc(O)c1Cl [tipiracil, reference compound]",99%,–,–,–

# Source: article PMC6984732, “Thymidine phosphorylase and prostrate cancer cell proliferation inhibitory activities of synthetic 4-hydroxybenzohydrazides: In vitro, kinetic, and in silico studies” (PLoS ONE, 2020)
